{"source": "patent US20050175644A1", "about": "“Preparation for oxidation-sensitive compounds and method for making same” (priority 2002, published 2005)", "key": {"[1]": {"system": "transformed human keratinocytes (cell line TR 146)", "experiment": "acute ocular tolerance on reconstituted corneas ([…] model), MTT cell viability test", "format": "cell-based", "design": "key to Colour of the two cultures: deep blue/purple colour when they are viable; white/yellow in colour if cell death occurs", "description": "To start with, the product was evaluated in terms of its capacity to trigger cytopathic effects on corneas reconstituted by means of in vitro transformed keratinocytes cultures.\nWhen they are cultured at the air-liquid interface in a specific medium, transformed human keratinocytes (cell line TR 146) form epithelial tissue without a corneal layer, similar to the human eye.\nA sample of the product to be studied (30 μl) was deposited on each of the six equivalent reconstituted corneal cultures and spread out using a thin brush.\nTwo cultures were then incubated at 37° C., 5% CO2 for 10 minutes, 1 hour, 3 hours and 24 hours.\nNegative controls substances (buffered phosphate saline solution A) and positive controls substances (0.4% SDS for “sodium dodecyl sulfate” in solution A) were prepared under sterile conditions and deposited simultaneously on the other two cultures. These cultures were incubated for one hand 24 hours. […]\nCell viability was measured qualitatively after staining. […]\nAfter incubation for 30 minutes at room temperature, each culture's colour is observed and recorded: • negative control cultures should be a deep blue/purple colour, evidence of the viability of cells in the basal layer after 24 hours in contact, • positive control cultures should be white, evidence of cell death from the first hour of contact."}, "[2]": {"experiment": "stability of BHT in the preparation on storage, liquid chromatography", "format": "physicochemical", "description": "Finally, the stability of BHT in a preparation according to the invention was tested: • a container with 40 kg of preparation, covered with a simple lid without any special packaging such as the addition of an inert gas (e.g. nitrogen), was placed in storage for three yeas."}, "lipid-coated viruses": {"system": "lipid-coated viruses", "conditions": "against lipid-coated viruses; cited from earlier work"}}, "data": [{"smiles": "CCCCCCCCCCCCOS(=O)(=O)[O-].[Na+]", "note": "[Positive control, sodium dodecyl sulfate]", "values": [{"measurement": "Colour of the two cultures", "setting": "[1]; 1 hour contact, MTT", "value": "white"}, {"measurement": "Toxicity", "setting": "[1]; interpretation of the colours at 10 min, 1, 3 and 24 hours", "value": "VI (very irritant (VI): white at 10 minutes, 1 hour, 3 hours and 24 hours)"}]}, {"smiles": "Cc1cc(C(C)(C)C)c(O)c(C(C)(C)C)c1", "note": "[BHT, 3,5-di-tert-butyl-4-hydroxytoluene]", "values": [{"measurement": "BHT concentrations by liquid chromatography", "setting": "[2]; 40 kg of preparation in a container with simple lid, no inert gas, stored three years", "value": "remained the same"}, {"measurement": "stability of BHT in a preparation according to the invention", "setting": "[2]; storage for three years", "value": "excellent"}, {"measurement": "antiviral properties", "setting": "lipid-coated viruses", "value": "antiviral properties"}]}, {"smiles": "CC(C)(C)c1cc(C(=O)OCCOCCOCCOCCOCCOCCOCCOCCO)cc(C(C)(C)C)c1O", "note": "[AVF1, octaoxyethyleneglycol 3,5-di-tert-butyl-4-hydroxybenzoate]", "values": [{"measurement": "antiviral properties", "setting": "lipid-coated viruses", "value": "antiviral properties"}]}, {"smiles": "CC(C)(C)c1cc(C(=O)O)cc(C(C)(C)C)c1O", "note": "[BG4, 3,5-di-tert-butyl-4-hydroxybenzoic acid]", "values": [{"measurement": "antiviral properties", "setting": "lipid-coated viruses", "value": "antiviral properties"}]}]}
